Experimental findings from patent publication US5945507A, “Antimicrobial peptides” (University of Pittsburgh, priority 1997, dated 1999) are described below.

In general, MBC refers to the smallest concentration meeting the test's criterion for killing. A high value points to weaker bactericidal potency.

Series [1] has as its system S. aureus. Format: cell-based, Staphylococcus aureus. Conditions: for MBC50: in µM; for antibacterial activity (in words): S. aureus. Here is the method:
Bacterial lysis assay. Bacterial lysis assays were conducted in a manner similar to that described previously (Lehrer, R. I., M. E. Selsted, D. Szklarek, and F. J. 1983. Infect. Immun. 42:10-14, 1983; Miller, M. A., R. F. Garry, J. M. Jaynes, and R. C. Montelaro, AIDS Res Hum Retroviruses 7:511-519, 1991). Bacterial suspensions were cultured in Luria Broth to mid-log growth phase and washed by several cycles of centrifugation and resuspension in 10 mM phosphate buffer. The A600 of the suspension was adjusted with 10 mM phosphate buffer such that, upon dilution, 5-10×10^5 CFU/ml would be treated in the assay. Bacteria were incubated with two-fold dilutions of peptides (32-0.1 μM in 96-well plates in 10 mM phosphate buffer, pH 7.2, for 1 hour. Ten-fold dilutions were performed to a dilution of 1:1000; a 100-μl aliquot from each condition was plated on tryptic soy agar (Difco, Detroit, Mich.) and the plates were incubated overnight. Colonies of surviving bacteria (colony-forming units) were counted and compared to untreated controls to determine the amount of peptide-induced killing under each condition. Log killing is defined as the log of the ratio of CFUs present before and after treatment with peptide. Complete killing is indicated where there were zero colonies per 100-μl aliquot of undiluted bacteria-peptide mixture.
Calculation of MBC. […] The minimal bactericidal concentration, MBC, is the peptide concentration at which 99.9% (3 logs) killing is achieved (Pearson et al., Antimicrob. Agents Chemother. 18:699-708, 1980). The MBC50 is the peptide concentration at which 50% killing is achieved.

For series [2], the system named is human red blood cells (RBC). Format: cell-based. Particulars: for % lysis at 100 μM: erythrocytes, 100 μM peptide; for hemolytic activity (in words): red blood cells; for hemolytic activity: red cells of human, 100 μM. The text has this: Erythrocyte Lysis Assay. Peptides were screened for hemolytic activity by treating freshly isolated human red blood cells (RBC) with various concentrations of peptides, centrifuging the samples to pellet intact cells, and measuring the amount of hemoglobin in the supernatant to determine the extent of RBC lysis under each condition. The method used is essentially that described by Srinivas et al. (J. Biol. Chem. 267:7121-7127, 1992) with the following modifications: peptide concentrations of 0.1-100 μM were tested, the incubation period was 1 hour at 37° C., and the A570 was measured in duplicate wells of a 96-well plate. A calibration curve was constructed by treating various amounts of red blood cells (0, 20,40, 60, 80, and 100% of the volume of RBC used in test samples) with plain water, which completely lyses the cells. The standard curve was used to calculate the percent lysis at each peptide concentration.

Series [3] has as its system S. aureus. The series is described as follows: Kinetics of bacterial killing, S. aureus. Format: cell-based, Staphylococcus aureus. Particulars: 10 μM peptide, FIG. 5. Here is the method:
Kinetics of Bacterial Killing. The time course of the cytolytic activity of a peptide was determined by a modification of the above procedure, where a volume of appropriately diluted bacteria was treated with 1-10 μM peptide; aliquots of this mixture were removed every 10 seconds and diluted 1:2 in 2× Luria Broth; each resulting suspension was subsequently plated on agar as described above. The number of colonies visible upon incubation for each time point was used to calculate a rate of killing by the peptide.

Setting [4] is: Table 4, peptide concentration (closest 2-fold dilution) reducing CFU/ml by 50%.
Where [5] appears, read: Table 4, peptide concentration (closest 2-fold dilution) reducing CFU/ml by 99.9%, 1 hour.
[6] abbreviates: Table 7, substitution analogs, 50% reduction of CFU/ml.
[7] abbreviates: Table 7, substitution analogs, 99.9% reduction of CFU/ml.
[8] abbreviates: Table 6, truncated analogs, 50% reduction of CFU/ml.
Where [9] appears, read: Table 6, truncated analogs, 99.9% reduction of CFU/ml.

Entries after “also recorded” stand apart in the source; their conditions may differ. Where two headings read alike, the source gives them in different places. Bridge positions count the residues as written; N and C are the ends. Ends that are not written are not given here. I, II: the chains in the order shown. Bounds are passed on as bounds.

Turning to “RVIEVVQGACRAIRHIPRRIRGQLERIL [LLP1-Am, LLP1 with chemically modified cysteine]”, the MBC50 in series [1] (Table 8, cysteine substitution analogs, 50% reduction of CFU/ml) was 5. Also, the minimum bactericidal concentration (MBC) in series [1] (Table 8, cysteine substitution analogs, 99.9% reduction of CFU/ml) came out at 20 µM. Further, the “% lysis at 100 μM” value in series [2] (Table 8) worked out at 15%.
Take “YHRLRDLLLIVTRIVELLGRR [LLP2, HIVHXB2R 768-788]”: in series [1], the “antibacterial activity (in words)” value is reported as “highly active”. Moreover, the MBC50 in series [1] (setting [4]) was found to be 1. The MBC in series [1] (setting [5]) turned out to be 4 µM.
Take DLWETLRRGGRWILAIPRRIRQGLELTL [SLP1]: the MBC50 in series [1] (setting [4]) is 8. The same substance showed an MBC in series [1] (setting [5]) of more than 16 µM.
Take “RVIEVVQGACRAIRHIPRRIEQGLERIL [Peptide R848E, engineered analog of LLP1]”: the “antibacterial activity (in words)” value in series [1] was “reducing both the antibacterial and hemolytic activity”. The same substance registered an MBC50 in series [1] (setting [6]) of 20. For the same substance, the MBC in series [1] (setting [7]) was found to be 80 µM. In addition, in series [2] (Table 7), the “% lysis at 100 μM” value was determined as 10%. Besides, in series [2], the “hemolytic activity (in words)” value was “reducing both the antibacterial and hemolytic activity”.
On to RVIEVVQGACRAIRHIPRRIRQGLERIL [LLP1], for which the “% lysis at 100 μM” value in series [2] (Table 8) is given as 100%. The “hemolytic activity (in words)” value in series [2] is on record as “Below 10 μM very little lysis is observed”. Moreover, the “hemolytic LD50” value in series [2] (text b508) lay within 20 to 40 µM. In addition, the “killing within one minute” value in series [3] was “over 99.99%”.
For “LLSRVYQILQPILQRLSATLQRIREVLR [SLP2B, SIVMM239 790-817]”, the “antibacterial activity (in words)” value in series [1] is given as “highly active”. Also, the MBC50 entry in series [1] (setting [4]) is “.25”. This substance also registered a minimal bactericidal concentration (MBC) in series [1] (setting [5]) of 1 µM.
For “RIAGYGLRGLAVIIRICIRGLNLIFEIIR [ELP, EIAV 808-836 (Wyoming)]”, in series [1], the “antibacterial activity (in words)” value was “absence of measurable bactericidal activity; also recorded: little antibacterial activity”. Also, in series [1] (setting [4]), the MBC50 is on record as more than 10. This substance also registered an MBC in series [1] (setting [5]) of more than 10 µM. In addition, in series [2], the “hemolytic activity (in words)” value is “high hemolytic activity; also recorded: highly hemolytic”.
As to GACRAIRHIPRRIR [LP14], the “antibacterial activity (in words)” value in series [1] was “high level of antibacterial activity”. Further, in series [1] (setting [8]), the MBC50 amounted to 2.5. In series [1] (setting [9]), this substance came in with an MBC of 10 µM. In addition, in series [2], the “hemolytic activity (in words)” value is “virtually no hemolytic activity” and the hemolytic activity result is recorded as “less than 10%”.
For RVIEVVQGACRAIRHIPRRIR [LP21] the same measures were “high level of antibacterial activity”, 2.5, 10 µM, “virtually no hemolytic activity” and “less than 10%”.
“FLIRQLIRLLTWLFSNCRTLLSRVY [SLP2A, SIVMM239 771-795]”: in series [1], the “antibacterial activity (in words)” value is “highly active”. This substance returned an MBC50 in series [1] (setting [4]) of 4. Moreover, in series [1] (setting [5]), the MBC is more than 32 µM. Moreover, in series [2], the “hemolytic activity (in words)” value is recorded as “rather hemolytic”.
For the substance “RVIRVVQGACRAIRHIPRRIRQGLRRIL [Analog 5, engineered analog of LLP1]”, the “antibacterial activity (in words)” value in series [1] is “very high antibacterial and hemolytic activity”. The MBC50 in series [1] (setting [6]) amounted to 0.3. Besides, the minimum bactericidal concentration (MBC) in series [1] (setting [7]) came to 2.5 µM. Further, in series [2] (Table 7), the “% lysis at 100 μM” value amounted to 100%. Besides, the “hemolytic activity (in words)” value in series [2] is “very high antibacterial and hemolytic activity”.
For “RVIEVVQGACRAIEHIPRRIRQGLERIL [Peptide R841E, engineered analog of LLP1]”, the “antibacterial activity (in words)” value in series [1] is “reducing both the antibacterial and hemolytic activity”. In addition, in series [1] (setting [6]), the MBC50 is listed as 10-20. The substance also displayed an MBC in series [1] (setting [7]) of 40 to 80 µM. Also, the “% lysis at 100 μM” value in series [2] (Table 7) stood at 30%. Moreover, in series [2], the “hemolytic activity (in words)” value is “reducing both the antibacterial and hemolytic activity”.
Consider “FLIRQLIELLTWLFSNCRTLLSEVY [SLP2A1, engineered analog of SLP2A]”, for which the MBC50 in series [1] (setting [6]) is recorded as more than 32. In series [1] (setting [7]), this substance yielded an MBC of more than 32 µM. In addition, the “% lysis at 100 μM” value in series [2] (Table 7) came to 7%.
Consider “RVIEVVQGACRASRHIPRRIRQGLERIL [Peptide I840S, engineered analog of LLP1]”, for which, in series [1], the “antibacterial activity (in words)” value was “reduces antibacterial activity”. Further, in series [1] (setting [6]), the MBC50 turned out to be 2.5. The same substance came in with an MBC in series [1] (setting [7]) of 10 to 20 µM. In addition, in series [2] (Table 7), the “% lysis at 100 μM” value is less than 10%. Moreover, in series [2], the “hemolytic activity (in words)” value is recorded as “significantly reduced”.
For “RVIEVVQGACRAIEHIPRRIEQGLERIL [Analog 3, engineered analog of LLP1]” the same measures were “devoid of activity”, more than 80, more than 80 µM, less than 5% and “devoid of activity”.
Take “I: RVIEVVQGACRAIRHIPRRIRQGLERIL / II: RVIEVVQGACRAIRHIPRRIRQGLERIL (disulfide I:10-II:10) [bis-LLP1]”: the “% lysis at 100 μM” value in series [2] (Table 8) is 100%.
On to “LLSEVYQILQPILQELSATLQRIREVLR [SLP2B1, engineered analog of SLP2B]”, for which the MBC50 in series [1] (setting [6]) was more than 32. The substance further returned an MBC in series [1] (setting [7]) of more than 32 µM. The “% lysis at 100 μM” value in series [2] (Table 7) worked out at 10%.
In the case of “RVIEVVQGACRAIRHIPRRSRQGLERIL [Peptide I847S, engineered analog of LLP1]”, the “antibacterial activity (in words)” value in series [1] was “reduces antibacterial activity”. This substance also yielded an MBC50 in series [1] (setting [6]) of 5. The minimum bactericidal concentration (MBC) in series [1] (setting [7]) amounted to 20 µM. For the same substance, the “% lysis at 100 μM” value in series [2] (Table 7) is on record as less than 10%. The “hemolytic activity (in words)” value in series [2] is reported as “significantly reduced”.
For the substance VVQGACRAIRHIPRRIR [LP17], in series [1], the “antibacterial activity (in words)” value is given as “high level of antibacterial activity”. Further, the MBC50 in series [1] (setting [8]) came out at 5. This substance also returned an MBC in series [1] (setting [9]) of 20 µM. In addition, in series [2], the “hemolytic activity (in words)” value is listed as “virtually no hemolytic activity” and the hemolytic activity entry is reported as “less than 10%”.
